According to US10738028B2, “Spiro three-membered ring, spiro five-membered ring peptide deformylase inhibitor and use thereof in antibacteria and anti-tumor” (priority 2016, dated 2020):

Columns and labels:
Assay type in all cases: cell-based
[1] = system: HCT-116 colorectal cancer cell line; assay: CCK-8 proliferation inhibition; settings: concentration of 30 μM, 72 hours, CCK-8
Method in brief: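 Cells seeded at 2000 cells/well, cultured overnight at 37 °C, 5% CO2, then exposed to compound (DMSO; control 1‰ DMSO) for 72 h in McCoy's 5A with 10% newborn bovine serum. Viability read with 1:10 diluted CCK-8.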

[2] = system: A549 lung cancer cell line; assay: CCK-8 proliferation inhibition; settings: Homo sapiens, A549, 72 h, concentration of 30 μM
Method in brief: (§1)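 Plating at 2000 cells/well, then incubation overnight at 37° C. Next, a range of compound concentrations for 72 hours (control 1‰ DMSO). Finally, medium decanted and CCK-8 diluted 1:10 added.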

[3] = system: MGC-803 gastric cancer cell line; assay: CCK-8 proliferation inhibition; settings: Homo sapiens, MGC-803, 72 h, concentration of 30 μM
Method in brief: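 Cells seeded at 2000 cells/well, cultured overnight at 37 °C, 5% CO2, then exposed 72 h to compound dilutions in medium with 10% newborn bovine serum (1‰ DMSO control). Viability read with 1:10 diluted CCK-8 solution. Media: PC3 in F12; MGC-803 and Jurkat in 1640; MCF-7 in DMEM high glucose.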

[4] = system: BEL-7402 liver cancer cell line; assay: CCK-8 proliferation inhibition; settings: concentration of 30 μM
Method in brief: as §1

[5] = system: Escherichia coli (including ESBLs, non-ESBLs); assay: MIC, two-fold agar dilution (CLSI), clinical isolates
Method in brief: (§2)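 Test samples were assayed by the CLSI-recommended two-fold agar dilution method, and the minimum inhibitory concentration against each tested strain was determined.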

[6] = system: methicillin-sensitive Staphylococcus aureus (MSSA); assay: as above
Method in brief: as §2

[7] = system: Enterococcus faecium (EFM); assay: as above
Method in brief: as §2

[8] = system: Moraxella catarrhalis (BCA); assay: as above
Method in brief: as §2

[9] = system: Streptococcus pneoumoniae (SPN); assay: as above
Method in brief: as §2

[10] = system: methicillin-sensitive Staphylococcus epidermidis (MSSE); assay: as above
Method in brief: as §2

[11] = system: Enterococcus faecalis (EFA); assay: as above
Method in brief: as §2

[12] = system: methicillin-resistant Staphylococcus epidermidis (MRSE); assay: as above
Method in brief: as §2

[13] = system: methicillin-resistant Staphylococcus aureus (MRSA); assay: as above
Method in brief: as §2

CCCC[C@H](CC(=O)NO)C(=O)N1CC2(CC2)C[C@H]1C(=O)Nc1nc(C)cs1 [Example 51, (S)-5-((R)-2-(2-(hydroxyamino)-2-oxoethyl)hexanoyl)-N-(4-methylthiazol-2-yl)-5-spiro[2.4]heptane-6-carboxamide]
inhibition at 30 µM ([1]; Homo sapiens, HCT-116, 72 h, read-out: HCT116 inhibition rate/%): > 50%
HCT116 inhibition rate/% ([1]; 30 µM): 65%
inhibition at 30 µM [2]: 44%
inhibition at 30 µM [3]: 40%
inhibition at 30 µM ([4]; Homo sapiens, Bel-7402, 72 h): > 50%
Inhibition of proliferation, Liver cancer BEL-7402 ([4]; 72 hours, 30 µM): 68%
Anti-bacterial activity (MIC), strain ECO+ 15-1 ([5]; clinical isolate ECO+ 15-1): 16 µg/mL
Anti-bacterial activity (MIC), strain ECO+ 15-2 ([5]; clinical isolate ECO+ 15-2): > 32 µg/mL
Anti-bacterial activity (MIC), strain ECO+ 15-3 ([5]; clinical isolate ECO+ 15-3): > 32 µg/mL
Anti-bacterial activity (MIC), strain ECO+ 15-4 ([5]; clinical isolate ECO+ 15-4): 32 µg/mL
Anti-bacterial activity (MIC), strain ECO− 15-1 ([5]; clinical isolate ECO− 15-1): > 32 µg/mL
Anti-bacterial activity (MIC), strain ECO− 15-2 ([5]; clinical isolate ECO− 15-2): > 32 µg/mL
Anti-bacterial activity (MIC), strain ECO− 15-3 ([5]; clinical isolate ECO− 15-3): > 32 µg/mL
Anti-bacterial activity (MIC), strain ECO− 15-4 ([5]; clinical isolate ECO− 15-4): > 32 µg/mL
Anti-bacterial activity (MIC), strain MSSA 15-3 ([6]; clinical isolate MSSA 15-3): 0.25 µg/mL
Anti-bacterial activity (MIC), strain MSSA 15-4 ([6]; clinical isolate MSSA 15-4): 0.125 µg/mL
Anti-bacterial activity (MIC), strain MSSA 15-5 ([6]; clinical isolate MSSA 15-5): 0.06 µg/mL
Anti-bacterial activity (MIC), strain MSSA 15-6 ([6]; clinical isolate MSSA 15-6): 0.5 µg/mL
Anti-bacterial activity (MIC), strain EFM 15-1 ([7]; clinical isolate EFM 15-1): 2 µg/mL
Anti-bacterial activity (MIC), strain EFM 15-2 ([7]; clinical isolate EFM 15-2): 2 µg/mL
Anti-bacterial activity (MIC), strain EFM 15-3 ([7]; clinical isolate EFM 15-3): 0.5 µg/mL
Anti-bacterial activity (MIC), strain EFM 15-4 ([7]; clinical isolate EFM 15-4): 2 µg/mL
Anti-bacterial activity (MIC), strain EFM 15-5 ([7]; clinical isolate EFM 15-5): 1 µg/mL
Anti-bacterial activity (MIC), strain EFM 15-6 ([7]; clinical isolate EFM 15-6): 2 µg/mL
Anti-bacterial activity (MIC), strain BCA 14-1 ([8]; clinical isolate BCA 14-1): 2 µg/mL
Anti-bacterial activity (MIC), strain BCA 14-4 ([8]; clinical isolate BCA 14-4): 2 µg/mL
Anti-bacterial activity (MIC), strain BCA 14-5 ([8]; clinical isolate BCA 14-5): 0.5 µg/mL
Anti-bacterial activity (MIC), strain BCA 14-6 ([8]; clinical isolate BCA 14-6): 1 µg/mL
Anti-bacterial activity (MIC), strain BCA 14-7 ([8]; clinical isolate BCA 14-7): 0.5 µg/mL
Anti-bacterial activity (MIC), strain BCA 14-8 ([8]; clinical isolate BCA 14-8): 1 µg/mL
Anti-bacterial activity (MIC), strain BCA 14-10 ([8]; clinical isolate BCA 14-10): 0.5 µg/mL
Anti-bacterial activity (MIC), strain SPN 16-2 ([9]; clinical isolate SPN 16-2): 8 µg/mL
Anti-bacterial activity (MIC), strain SPN 16-4 ([9]; clinical isolate SPN 16-4): 0.5 µg/mL
Anti-bacterial activity (MIC), strain MSSE 15-3 ([10]; clinical isolate MSSE 15-3): 0.125 µg/mL
Anti-bacterial activity (MIC), strain MSSE 15-4 ([10]; clinical isolate MSSE 15-4): 0.125 µg/mL
Anti-bacterial activity (MIC), strain MSSE 15-5 ([10]; clinical isolate MSSE 15-5): 0.06 µg/mL
Anti-bacterial activity (MIC), strain MSSE 15-6 ([10]; clinical isolate MSSE 15-6): 0.06 µg/mL
Anti-bacterial activity (MIC), strain EFA 15-1 ([11]; clinical isolate EFA 15-1): 8 µg/mL
Anti-bacterial activity (MIC), strain EFA 15-2 ([11]; clinical isolate EFA 15-2): 8 µg/mL
Anti-bacterial activity (MIC), strain EFA 15-3 ([11]; clinical isolate EFA 15-3): 2 µg/mL
Anti-bacterial activity (MIC), strain EFA 15-4 ([11]; clinical isolate EFA 15-4): 8 µg/mL
Anti-bacterial activity (MIC), strain EFA 15-5 ([11]; clinical isolate EFA 15-5): 8 µg/mL
Anti-bacterial activity (MIC), strain EFA 15-6 ([11]; clinical isolate EFA 15-6): 8 µg/mL
Anti-bacterial activity (MIC), strain EFA 15-9 ([11]; clinical isolate EFA 15-9): 8 µg/mL
Anti-bacterial activity (MIC), strain MRSE 15-1 ([12]; clinical isolate MRSE 15-1): 0.06 µg/mL
Anti-bacterial activity (MIC), strain MRSE 15-2 ([12]; clinical isolate MRSE 15-2): 0.25 µg/mL
Anti-bacterial activity (MIC), strain MRSE 15-3 ([12]; clinical isolate MRSE 15-3): 0.25 µg/mL
Anti-bacterial activity (MIC), strain MRSE 15-7 ([12]; clinical isolate MRSE 15-7): 0.25 µg/mL
Anti-bacterial activity (MIC), strain MRSA 15-1 ([13]; clinical isolate MRSA 15-1): 0.25 µg/mL
Anti-bacterial activity (MIC), strain MRSA 15-2 ([13]; clinical isolate MRSA 15-2): 1 µg/mL
Anti-bacterial activity (MIC), strain MRSA 15-3 ([13]; clinical isolate MRSA 15-3): 0.2 µg/mL
Anti-bacterial activity (MIC), strain MRSA 15-4 ([13]; clinical isolate MRSA 15-4): 0.5 µg/mL
